Numbers after ± are expanded uncertainties.
Assay: mn = molality of the nth substance listed, in mol/kg
Settings: 101 kPa, Liquid, Vibrating tube method

CCCCCCCCCCCC[N+](C)(C)CCOc1ccccc1.[Br-] [Domiphen bromide] + O
mass density [kg/m3]
Settings | 293.15 K | 298.15 K | 303.15 K | 308.15 K
m1 = 0.04 | 999.65 ± 1 | 998.37 ± 1 | 996.97 ± 1 | 995.39 ± 1
m1 = 0.08 | 1000.98 ± 1 | 999.84 ± 1 | 998.36 ± 1 | 996.78 ± 1

— the NIST ThermoML archive (doi:10.1016/j.jct.2016.06.018)
